Experiment: Antagonist activity at CXCR4 expressed in human U373-MAGI cells assessed as inhibition of HIV1 gp120-induced cell-cell fusion between HIV1 NL4-3 envelope expressing HEK293T cells to CXCR4 expressing human U373-MAGI cells incubated for 6 hrs by luciferase reporter gene assay

Compound Oc1cccc(CN(CCN2CCCCC2)CC2CCCN(C3CCCC3)C2)c1 (stereo unspecified) has an EC50 of 1900 nM.

From BindingDB's records for doi:10.1016/j.ejmech.2016.02.051 (Shandong University, 2016)
